# From paper PMC3700763, “First human dose-escalation study with remogliflozin etabonate, a selective inhibitor of the sodium-glucose transporter 2 (SGLT2), in healthy subjects and in subjects with type 2 diabetes mellitus” (BMC Pharmacology & Toxicology, 2013)
# Marks after values point to notes of the source that are not given here.
# Key:
# [1] = Adverse events after single oral doses, healthy subjects (Part A); assay type: in vivo, human; details: for Blood creatine phosphokinase increased (adverse events reported by >1 subject in total) / Diarrhea (drug-related adverse events) / Dizziness (drug-related adverse events) / Headache (adverse events reported by >1 subject in total) / Headache (drug-related adverse events) / Hot flush (drug-related adverse events) / At least one adverse event: healthy subjects; for At least one adverse event: n = 8
# Experimental: This double-blind, randomized, placebo-controlled, single escalating-dose crossover study was conducted in two parts: Part A consisted of a randomized, dose-escalation in healthy subjects; Part B was of similar design, but conducted in subjects with T2DM and included an evaluation of pharmacodynamics using a 50 g oral glucose tolerance test (OGTT).
# Ten healthy subjects were evaluated in 5 study sessions, each separated by approximately 2 weeks. At each study session, subjects received either an oral dose of remogliflozin etabonate or placebo after an overnight fast. Remogliflozin etabonate doses were 20 mg, 50 mg, 150 mg, 500 mg and 1000 mg. Over the course of participation in the study, each subject received 4 of the 5 active remogliflozin etabonate doses and 1 dose of placebo (4:1 active to placebo ratio per treatment period). The available safety and PK results from each dosing period were evaluated before proceeding to the next dose level.
# All subjects were admitted to the unit two nights prior to receiving study drug to establish baseline safety parameters and fluid intake levels over a 36 h period. Subjects remained in the unit for at least 24 h after doses were administered for monitoring of clinical laboratory parameters exploratory biomarkers, vital signs, ECGs and adverse events. While confined to the clinical research unit, all subjects received meals standardized with respect to calories, fat, protein, carbohydrate, and sodium content; however, detailed dietary information was not captured in this study. In Part A, subjects were dosed following an overnight fast; lunch and dinner were provided at 4 and 10 h after dosing, respectively. Fifteen minutes after dosing in each treatment period in Part B, a fasting OGTT was performed using 50 g glucose (administered as 50 g Glucola™). A 50 g glucose load was chosen since the OGTT was being performed in subjects already known to have diabetes. The glucose drink was consumed by subjects within approximately 5 minutes. Blood samples for the measurement of glucose, insulin, and intact glucagon-like peptide 1 (GLP-1) were collected for 24 hours following dose administration. Provided that there were no safety or tolerability concerns, subjects were released from the clinic on day 2 of each treatment period until their return for the next treatment or follow-up period. Each subject was involved in the study for approximately 8 weeks (from screening to follow-up).
# [2] = 24-h urine electrolyte excretion, healthy subjects; assay type: in vivo, human; details: for Urinary chloride excretion / Urinary potassium excretion / Urinary sodium excretion: 24-h, healthy subjects, mean (SD)
# Experimental: (§1) Urine samples were collected at pre-dose, and over a series of intervals (0–2, 2–4, 4–6, 6–8, 8–12 and 12–24 h post-dose) for the analysis of creatinine, glucose and electrolytes (Na, K and Cl). All fluid intake was recorded, as well as urine volume, over the 24 hours before and after dosing in each treatment period. Urine was tested for protein on the first morning void of day -1 and 24 h after dosing.
# [3] = 24-h urine electrolyte excretion, T2DM subjects; assay type: in vivo, human; details: mean (SD)
# Experimental: as §1
# [4] = Urine beta-2 microglobulin (exploratory renal toxicity biomarker), T2DM subjects; assay type: in vivo, human; details: one T2DM subject
# Experimental: Urine beta-2 microglobulin levels, an exploratory biomarker that was measured as a potential early indicator of renal toxicity, were within the normal range at both baseline and after treatment for all subjects except for two subjects with diabetes.
# [5] = rats; cited from earlier work
compound,measurement,setting,value
"CCOC(=O)OC[C@H]1O[C@@H](Oc2nn(C(C)C)c(C)c2Cc2ccc(OC(C)C)cc2)[C@H](O)[C@@H](O)[C@@H]1O [Remogliflozin etabonate, remogliflozin etabonate]",Tolerability,"[1]; all subjects, single oral doses 20-1000 mg, no deaths, serious adverse events or withdrawals",generally well-tolerated
same,Blood creatine phosphokinase increased (adverse events reported by >1 subject in total),[1]; 20 mg single oral dose,0 n (%)
same,Diarrhea (drug-related adverse events),[1]; 20 mg single oral dose,1 (13) n (%)
same,Dizziness (drug-related adverse events),[1]; 20 mg single oral dose,0 n (%)
same,Headache (adverse events reported by >1 subject in total),[1]; 20 mg single oral dose,1 (13) n (%)
same,Headache (drug-related adverse events),[1]; 20 mg single oral dose,1 (13) n (%)
same,Hot flush (drug-related adverse events),[1]; 20 mg single oral dose,0 n (%)
same,At least one adverse event,[1]; 20 mg single oral dose,2 (25) n (%)
same,Blood creatine phosphokinase increased (adverse events reported by >1 subject in total),[1]; 50 mg single oral dose,0 n (%)
same,Diarrhea (drug-related adverse events),[1]; 50 mg single oral dose,0 n (%)
same,Dizziness (drug-related adverse events),[1]; 50 mg single oral dose,0 n (%)
same,Headache (adverse events reported by >1 subject in total),[1]; 50 mg single oral dose,1 (13) n (%)
same,Headache (drug-related adverse events),[1]; 50 mg single oral dose,1 (13) n (%)
same,Hot flush (drug-related adverse events),[1]; 50 mg single oral dose,0 n (%)
same,At least one adverse event,[1]; 50 mg single oral dose,3 (38) n (%)
same,Blood creatine phosphokinase increased (adverse events reported by >1 subject in total),[1]; 150 mg single oral dose,0 n (%)
same,Diarrhea (drug-related adverse events),[1]; 150 mg single oral dose,0 n (%)
same,Dizziness (drug-related adverse events),[1]; 150 mg single oral dose,0 n (%)
same,Headache (adverse events reported by >1 subject in total),[1]; 150 mg single oral dose,0 n (%)
same,Headache (drug-related adverse events),[1]; 150 mg single oral dose,0 n (%)
same,Hot flush (drug-related adverse events),[1]; 150 mg single oral dose,0 n (%)
same,At least one adverse event,[1]; 150 mg single oral dose,1 (13) n (%)
same,Blood creatine phosphokinase increased (adverse events reported by >1 subject in total),[1]; 500 mg single oral dose,1 (13) n (%)
same,Diarrhea (drug-related adverse events),[1]; 500 mg single oral dose,0 n (%)
same,Dizziness (drug-related adverse events),[1]; 500 mg single oral dose,0 n (%)
same,Headache (adverse events reported by >1 subject in total),[1]; 500 mg single oral dose,2 (25) n (%)
same,Headache (drug-related adverse events),[1]; 500 mg single oral dose,0 n (%)
same,Hot flush (drug-related adverse events),[1]; 500 mg single oral dose,0 n (%)
same,At least one adverse event,[1]; 500 mg single oral dose,3 (38) n (%)
same,Blood creatine phosphokinase increased (adverse events reported by >1 subject in total),[1]; 1000 mg single oral dose,0 n (%)
same,Diarrhea (drug-related adverse events),[1]; 1000 mg single oral dose,0 n (%)
same,Dizziness (drug-related adverse events),[1]; 1000 mg single oral dose,1 (13) n (%)
same,Headache (adverse events reported by >1 subject in total),[1]; 1000 mg single oral dose,1 (13) n (%)
same,Headache (drug-related adverse events),[1]; 1000 mg single oral dose,1 (13) n (%)
same,Hot flush (drug-related adverse events),[1]; 1000 mg single oral dose,1 (13) n (%)
same,At least one adverse event,[1]; 1000 mg single oral dose,1 (13) n (%)
same,Urinary chloride excretion,[2]; 20 mg single dose,136 (56.6) mmol
same,Urinary potassium excretion,[2]; 20 mg single dose,66.6 (27.7) mmol
same,Urinary sodium excretion,[2]; 20 mg single dose,148 (64.0) mmol
same,Urinary chloride excretion,"[2]; 50 mg single dose, n = 7",189 (51.4)^b mmol
same,Urinary potassium excretion,"[2]; 50 mg single dose, n = 7",75.2 (21.3)^b mmol
same,Urinary sodium excretion,"[2]; 50 mg single dose, n = 7",212 (67.6)^b mmol
same,Urinary chloride excretion,"[2]; 150 mg single dose, n = 7",179 (49.6)^b mmol
same,Urinary potassium excretion,"[2]; 150 mg single dose, n = 7",59.7 (20.3)^b mmol
same,Urinary sodium excretion,"[2]; 150 mg single dose, n = 7",176 (38.7)^b mmol
same,Urinary chloride excretion,[2]; 500 mg single dose,126 (55) mmol
same,Urinary potassium excretion,[2]; 500 mg single dose,55.8 (17.2) mmol
same,Urinary sodium excretion,[2]; 500 mg single dose,143 (55.0) mmol
same,Urinary chloride excretion,[2]; 1000 mg single dose,201 (61.5) mmol
same,Urinary potassium excretion,[2]; 1000 mg single dose,89.1 (24.7) mmol
same,Urinary sodium excretion,[2]; 1000 mg single dose,207 (62.9) mmol
same,"Effect on clinical laboratory results, urine electrolytes, vital signs or ECGs",[2]; all subjects,no obvious patterns suggesting an effect
same,Urinary chloride excretion,"[3]; 50 mg single dose, n = 5",168 (23.9)^c mmol
same,Urinary potassium excretion,"[3]; 50 mg single dose, n = 5",65.8 (4.5)^c mmol
same,Urinary sodium excretion,"[3]; 50 mg single dose, n = 5",173 (35.5)^c mmol
same,Urinary chloride excretion,[3]; 500 mg single dose,287 (147) mmol
same,Urinary potassium excretion,[3]; 500 mg single dose,108 (65.8) mmol
same,Urinary sodium excretion,[3]; 500 mg single dose,301 (128) mmol
same,Time for drug-related beta-2 microglobulin elevation to return to normal,[4]; 500 mg,≤ 4 days
same,"Urine beta-2 microglobulin, elevation","[4]; 11 days after 500 mg, attributed by investigator to other concomitant disease",2.5 µg/mL
same,"Urine beta-2 microglobulin, drug-related elevation","[4]; day 1 after 500 mg, normal <0.3 μg/mL",1.62 µg/mL
same,Urinary glucose excretion,[5],concentration-dependent increase
